Experiments:
[1] = target: T1, TrxR2 (Homo sapiens, UniProt Q9NNW7); assay: Mass spectrometry of immunoprecipitated TrxR2 modified by Iniparib in HCT116 cells; type: cell-based
T1 construct: TrxR1 and TrxR2 were immunoprecipitated from octylglucoside cell extracts (12 mg proteins); endogenous in cells; host or cells: HCT116 (BSO-pretreated)
Description: After separation by SDS-PAGE under reducing conditions and PageBlue® protein staining (Thermo scientific), bands of interest were excised, reduced with DTT, alkylated with iodoacetamide and in-gel digested with trypsin (Promega), according to the method of Shevchenko et al. (24). Peptides were extracted with 50 mM ammonium bicarbonate and 50% acetonitrile in 0.2% formic acid and analyzed by Nano LC-MS/MS after partial evaporation in a speed-vac concentrator. LC-MS/MS experiments were performed on an NanoAcquity UPLC (Waters) coupled to a hybrid LTQ Orbitrap Velos mass spectrometer (Thermo Fisher Scientific) equipped with a nanoelectrospray source. Tryptic digests were loaded onto a nanoAcquity UPLC Trap column (Symmetry C18, 5 μm, 180 μm×20 mm, Waters) and washed with 0.2% FA at 20 μl/min for 5 min. Peptides were then eluted on a C18 reverse-phase nanoAcquity column (BEH130 C18, 1.7 μm, 75 μm×250 mm, Waters) with a linear gradient of 7-30% solvent B (H2O/CH3CN/HCOOH, 10:90:0.2, by vol.) for 85 min, 30-90% solvent B for 10 min, and 90% solvent B for 5 min, at a flow rate of 250 nL/min. The mass spectrometer was operated in the data-dependent mode to automatically switch between MS and MS/MS acquisition. Survey full scan MS spectra (m/z 300-1,600) were acquired in the Orbitrap with a resolution of 60,000 at m/z 400. The AGC was set to 1×10^6 with a maximum injection time of 100 ms. The most intense ions (up to 20) were then isolated for fragmentation in the LTQ linear ion trap with normalized collision energy of 28% at the default activation q of 0.25 with an AGC of 5×10^3 and a maximum injection time of 200 ms. The dynamic exclusion time window was set to 80 s. […] The exact parent mass is the 12C isotope ion mass of the most intense isotopic pattern detected on the high resolution Orbitrap MS parallel scan and included in the MS/MS selection window. […]

[2] = tested on: MDA-MB-453 cells; assay: Apoptosis and necrosis assay (DiOC2(3)/DAPI flow cytometry); type: cell-based, human; conditions: MDA-MB-453 without GSH depletion
Description: (§1) Cells were seeded in 6-well tissue culture plates (2.5×10^5 cells/well). MDA-MB-453 and HCT116 cells were first pre-treated or not for 48 h with 1 mM BSO. […] Cell-conditioned culture media, that may contain detached cells, were then collected and attached cells were trypsinized. Cells were combined with their corresponding conditioned media and collected by centrifugation at 1500 rpm for 10 min at 4° C. […] Cell- and DNA-associated fluorescence signals were quantified using a FACS-Aria (BD Biosciences) and data were analyzed with the […] software (BD Biosciences).

[3] = tested on: HCT116 cells; assay: as above; type: cell-based, human
Description: as §1

[4] = tested on: HCT116 cells; assay: ROS production and video-microscopy (H2DCF); type: cell-based, human; conditions: HCT116 loaded with H2DCF, 100 μM
Description: HCT116 cells pretreated or not for 20h with 1 mM BSO were loaded with 5 μM 2′,7′ dichloroflurescein diacetate (H2DCF). […] H2DCF fluorescence was excited with a LED light source (490 nm) and emitted light was collected at 520-550 nm. For video, H2DCF-loaded cells were washed with HBSS and kept for measurement in 2 μM H2DCF in HBSS.
For quantification the MetaMorph® software was used. ROIs were traced on representative cells and integrated fluorescence intensities were estimated. Values correspond to the average intensities of the ROIs and are expressed as the ratio F/FO, where F is the averaged intensity recorded at a given time and FO corresponds to an averaged intensity recorded on images captured before adding the compounds.

[5] = tested on: MDA-MB-231 cells; assay: Fluorescence microscopy, subcellular localization of iniparib-biotin targets; type: cell-based, human; conditions: MDA-MB-231, as early as 30 min following compound addition
Description: MDA-MB-231 cells were platted on polylysine D coated thin glass bottom microscope chambers (Ibidi). […] For subcellular localization experiments mitochondria were stained with 100 nM Mitotracker Red CMX (Molecular probes) added for 10 min. This stain was performed before fixation (Paraformaldehyde 3.7% in PBS pH 7.4). Biotin was developed, after Triton X100 (0.3% in PBS, 15 min) permeabilization and saturation (1% BSA+1% gelatin in PBS: saturation buffer), with Alexa-488 streptavidin (Molecular Probes) conjugate (1 μg/ml in saturation buffer). Nuclei were stained with Hoechst (Molecular Probes) and samples mounted in antifading solution (Ibidi).
Cells were imaged with a PLAN NeoFluar 40× (NA 1.3) or 100×, (NA 1.46) oil objectives on a LSM510 (Zeiss) confocal microscope. Laser lines, filters and dichroic mirrors were selected for maximal separation of the green (Ex./Em. 488/530 nm) and the red fluorescence (Ex./Em. 543/LP 585 nm). Nuclei were observed (Ex./Em. 405/460 nm). For co-localization stacks of images separated by 400 nm along z-axis were acquired. Post-capture processing was done using LSM510 software, stacks of confocal images were deconvoluted using the ImageJ software.

T1 sequence (Q9NNW7 37-524): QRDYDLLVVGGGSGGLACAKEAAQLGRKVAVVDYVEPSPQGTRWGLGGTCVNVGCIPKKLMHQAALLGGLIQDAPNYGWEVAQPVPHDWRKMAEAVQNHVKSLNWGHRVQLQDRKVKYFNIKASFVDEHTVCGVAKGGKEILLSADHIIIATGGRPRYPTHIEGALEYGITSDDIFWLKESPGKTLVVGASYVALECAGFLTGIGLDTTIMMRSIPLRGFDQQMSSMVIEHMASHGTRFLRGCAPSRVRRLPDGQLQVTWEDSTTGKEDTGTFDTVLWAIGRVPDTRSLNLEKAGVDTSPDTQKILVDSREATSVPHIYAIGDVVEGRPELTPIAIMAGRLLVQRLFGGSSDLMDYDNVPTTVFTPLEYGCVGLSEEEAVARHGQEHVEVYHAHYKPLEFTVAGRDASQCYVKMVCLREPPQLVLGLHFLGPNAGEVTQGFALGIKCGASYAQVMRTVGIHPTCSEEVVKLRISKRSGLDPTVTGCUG

## NC(=O)c1ccc(I)c([N+](=O)[O-])c1 [Iniparib, 4-iodo-3-nitrobenzamide]
[1]; 1 h
  TrxR2 with one Iniparib adduct on Sec residue: 5%
[1]; 4 h
  TrxR2 with one Iniparib adduct on Sec residue: 12%
  additional TrxR2 peptide modified on a cysteine residue: < 1%
[2]
  apoptotic phenotype induction: much slower than in HCT116 cells
[3]; GSH-depleted HCT116, 100 μM
  treatment time from which apoptotic phenotype clearly detected: 6 h
[3]; GSH-depleted HCT116, 9 h, 100 μM
  cell death phenotype: induced both necrotic and late apoptotic related phenotypes
[4]
  ROS production: induced an increase in ROS production

## O=C(CCCC[C@@H]1SC[C@@H]2NC(=O)N[C@@H]21)NCCNC(=O)c1ccc(I)c([N+](=O)[O-])c1 [Iniparib-biotin, 4-iodo-3-nitro-N-(2-(5-((3 aS,4S,6aR)-2-oxohexahydro-1H-thieno[3,4-d]imidazol-4-yl)pentanamido)ethyl)benzamide]
[5]
  protein modification, subcellular localization: covalently modified cytosolic and mitochondrial proteins were detected

From patent US20200113852A1, “METHODS OF PATIENT SELECTION AND TREATING TRXR- OR PRDX-OVEREXPRESSED CANCERS” (TRIACT THERAPEUTICS, INC., priority 2017, published 2020)
